Like-named read-outs stand apart in the source and are kept apart here.
Key:
[1] = target: muscarinic acetylcholine receptors; test: inhibition of specific binding of ^3 H-Oxotremorine-M (^3 H-Oxo); design: species or system rat (male Wistar; conditions: ^3 H-Oxotremorine 1.0 nM, rat cortex, 30 min. at 25° C.
Source text: The pharmacological properties of the compounds of the invention can be illustrated by determining their capability to inhibit the specific binding of ^3 H-Oxotremorine-M (^3 H-Oxo). Birdsdall N. J. M., Hulme E. C., and Burgen A. S. V. (1980). "The Character of Muscarinic Receptors in Different Regions of the Rat Brain" Proc. Roy. Soc. London (Series B) 207,1.
^3 H-Oxo labels muscarinic receptor in the CNS (with a preference for agonist domains of the receptors). Three different sites are labeled by ^3 H-Oxo. […] Using the present experimental conditions only the high and medium affinity sites are determined.
The inhibitory effects of compounds on ^3 H-oxo binding reflects the affinity for muscarinic acetylcholine receptors.
(§1) All preparations are performed at 0°-4° C. unless otherwise indicated. Fresh cortex (0.1-1 g) from male Wistar rats (150-250 g) is homogenized for 5-10 seconds in 10 mL 20 nM Hepes pH: 7.4, with an Ultra-Turrax homogenizer. The homogenizer is rinsed with 10 mL of buffer and the combined suspension centrifuged for 15 min. at 40,000×g. The pellet is washed three times with buffer. In each step the pellet is homogenized as before in 2×10 mL of buffer and centrifuged for 10 min. at 40,000×g.
The final pellet is homogenized in 20 mM Hepes pH: 7.4 (100 mL per g of original tissue) and used for binding assay. Aliquots of 0.5 mL is added 25 μL of test solution and 25 μL of ^3 H-Oxotremorine (1.0 nM, final concentration) mixed and incubated for 30 min. at 25° C. Non-specific binding is determined in triplicate using arecoline ([…], final concentration) as the test substance. After incubation samples are added 5 mL of ice-cold buffer and poured directly onto Whatman GF/C glass fiber filters under suction and immediately washed 2 times with 5 mL of ice-cold buffer. The amount of radioactivity on the filters are determined by conventional liquid scintillation counting. Specific binding is total binding minus non specific binding.
Test substances are dissolved in 10 mL water (if necessary heated on a steam-bath for less than 5 min.) at a concentration of 2.2 mg/mL. […] The test value will be given as IC50 (the concentration (nM) of the test substance which inhibits the specific binding of ^3 H-oxo by 50%). IC50 =(applied test substance concentration) x(Cx /Co -Cx)nM where Co is specific binding in control assays and Cx is the specific binding in the test assay. (The calculations assume normal mass-action kinetics).

[2] = target: T1, muscarinic receptors (M1 -site, pirenzepine sensitive site) (Rattus norvegicus, UniProt P08482); test: inhibition of ^3 HPRZ (pirenzepine, [N-methyl-^3 H]) binding to rat cerebral cortex membranes; design: species or system rat (male Wistar
T1 construct: from tissue; host or cells: cerebral cortex membranes of male Wistar rats
T1 sequence (P08482 1-460): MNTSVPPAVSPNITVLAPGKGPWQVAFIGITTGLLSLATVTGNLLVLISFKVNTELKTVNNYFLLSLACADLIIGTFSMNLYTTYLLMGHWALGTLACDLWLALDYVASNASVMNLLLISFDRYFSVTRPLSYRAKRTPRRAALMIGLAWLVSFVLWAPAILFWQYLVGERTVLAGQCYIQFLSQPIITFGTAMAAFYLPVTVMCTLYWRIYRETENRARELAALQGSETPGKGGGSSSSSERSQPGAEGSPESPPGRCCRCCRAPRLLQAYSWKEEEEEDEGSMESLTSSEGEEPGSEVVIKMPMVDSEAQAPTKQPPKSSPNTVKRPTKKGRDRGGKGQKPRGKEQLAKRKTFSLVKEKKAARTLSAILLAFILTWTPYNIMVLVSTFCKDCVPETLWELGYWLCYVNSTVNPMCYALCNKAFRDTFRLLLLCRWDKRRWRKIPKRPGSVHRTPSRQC
Protocol: Furthermore the pharmacological properties of the compounds of the invention can also be illustrated by determining their capability to inhibit ^3 HPRZ (pirenzepine, [N-methyl-^3 H]) binding to rat cerebral cortex membranes.
Pirenzepine binds selectively to subtype of muscarinic receptors. Historically the type is named the M1 -site, whereas pirenzepine sensitive site would be more appropriate.
as §1, with “cortex ([…])” for “cortex (0.1-1 g)”, “rats (150-200” for “rats (150-250”, “5-10 s” for “5-10 seconds”, “20 mM” for “20 nM”, “with 2×10” for “with 10”, “in 3×10” for “in 2×10”
The final pellet is homogenized in 20 mM Hepes pH: 7.4 (100 mL per g of original tissue) and used for binding assay. Aliquots of 0.5 mL is added 20 μl of test solution and 25 μL of ^3 HPRZ (1.0 nM, final conc.), mixed and incubated for 60 min. at 20° C. Non-specific binding is determined in triplicate using atropine (1 ,μg/mL, final conc.) as the test substance. After incubation samples are added 5 mL of ice-cold buffer and poured directly onto Whatman GF/C glass fiber filters under suction and immediately washed 2 times with 5 mL of ice-cold buffer. The amount of radioactivity on the filters are determined by conventional liquid scintillation counting. Specific binding is total binding minus non-specific binding.
Test substances are dissolved in 10 mL water, at a concentration of 0.22 mg/mL.
The test value will be given as IC50 (the concentration (nM) of the test substance which inhibits the specific binding of ^3 HPRZ by 50%). IC50 =(applied test substance concentration) x(Cx /Co -Cx)nM where Co is specific binding in control assays and Cx is the specific binding in the test assay. (The calculations assume normal mass-action kinetics).

[3] = ^3 HPRZ 1.0 nM, rat cortex, 60 min. at 20° C., read-out: ^3 HPRZ IC50 (head from b208 on: Pir IC-50)

| IC50 [2, 3] | Structure (SMILES) | IC50 [1] | IC50 [2] |
| --- | --- | --- | --- |
| – | c1csc(SCCSc2nsnc2OC2CN3CCC2CC3)c1 (racemic) [Compound 19, (±)-3-(2-(2-Thienylthio)ethylthio)-4-(1-azabicyclo-[2.2.2]octyl-3-oxy)-1,2,5-thiadiazole] | 0.36 nM | 7.5 nM |
| – | FC(F)(F)C(F)(F)CSc1nsnc1OC1CN2CCC1CC2 (racemic) [Compound 20, (±)-3-(2,2,3,3,3-Pentafluoropropylthio)-4-(1-azabicyclo-[2.2.2]octyl-3-oxy)-1,2,5-thiadiazole] | 2.6 nM | 4 nM |
| – | c1csc(CCCSc2nsnc2OC2CN3CCC2CC3)c1 (racemic) [Compound 21, (±)-3-(3-(2-Thienyl)propylthio)-4-(1-azabicyclo[2.2.2]-octyl-3-oxy-1,2,5-thiadiazole] | 4.4 nM | 4 nM |
| – | CCCCSc1nsnc1OCC1CN2CCC1CC2 (racemic) [Compound 22, (±)-3-Butylthio-4-((1-azabicyclo[2.2.2]octan-3-yl)-methoxy)-1,2,5-thiadiazole] | 23 nM | 7.4 nM |
| 370 nM | CCCCOc1nsnc1OC1CCNC1 (racemic) [Compound 27, (±)-3-Butyloxy-4-(3-pyrrolidinyloxy)-1,2,5-thiadiazole] | 123 nM | – |
| 25 nM | CCCCOc1nsnc1OC1CCN(C)C1 (racemic) [Compound 28, (±)-3-Butyloxy-4-(1-methyl-3-pyrrolidinyloxy)-1,2,5-thiadiazole] | 37 nM | – |
| 20 nM | CCCCSc1nsnc1OC1CCCN(C)C1 (racemic) [Compound 29, (±)-3-Butylthio-4-(1-methyl-3-piperidyloxy)-1,2,5-thiadiazole] | 34 nM | – |
| – | CC(C)CCCSc1nsnc1OC1CN2CCC1CC2 (racemic) [Compound 39, (±)-3-(4-Methylpentylthio)-4-(1-azabicyclo[2.2.2]octyl-3-oxy)-1,2,5-thiadiazole] | 13 nM | 15 nM |
| – | c1ccc(CCCSc2nsnc2OC2CN3CCC2CC3)cc1 (racemic) [Compound 40, (±)-3-(3-Phenylpropylthio)-4-(1-azabicyclo[2.2.2]octyl-3-oxy)-1,2,5-thiadiazole] | 1.8 nM | 2.5 nM |
| – | N#Cc1ccc(CSc2nsnc2OC2CN3CCC2CC3)cc1 (racemic) [Compound 41, (±)-3-(4-Cyanobenzylthio)-4-(1-azabicyclo[2.2.2]octyl-3-oxy)-1,2,5-thiadiazole] | 25 nM | 19 nM |
| – | Fc1ccc(CSc2nsnc2OC2CN3CCC2CC3)cc1 (racemic) [Compound 42, (±)-3-(4-Fluorobenzylthio)-4-(1-azabicyclo[2.2.2]octyl-3-oxy)-1,2,5-thiadiazole] | 14 nM | 9.3 nM |
| – | c1ccc(CCSc2nsnc2OC2CN3CCC2CC3)cc1 (racemic) [Compound 43, (±)-3-(2-Phenylethylthio)-4-(1-azabicyclo[2.2.2]octyl-3-oxy)-1,2,5-thiadiazole] | 29 nM | 33 nM |
| – | c1ccc(OCCSc2nsnc2OC2CN3CCC2CC3)cc1 (racemic) [Compound 44, (±)-3-(2-Phenyloxyethylthio)-4-(1-azabicyclo[2.2.2]octyl-3-oxy)-1,2,5-thiadiazole] | 7.1 nM | 15 nM |
| 475 nM | CCCCOc1nsnc1O[C@@H]1CCC[C@H]1N(C)C (racemic) [Compound 52, (±)-trans-3-Butyloxy-4-(2-dimethylaminocyclopentyloxy)-1,2,5-thiadiazole] | > 1000 nM | – |
| 35 nM | CCCCSc1nsnc1OC1CCNC1 (racemic) [Compound 53, (±)-3-Butylthio-4-(3-pyrrolidnyloxy)-1,2,5-thiadiazole] | 24 nM | – |
| – | FC(F)(F)c1ccc(SCCSc2nsnc2OC2CN3CCC2CC3)s1 (racemic) [Compound 55, (±)-3-(2-(2-Thio-5-trifluoromethylthienyl)ethylthio)-4-(1-azabicyclo[2.2.2]octyl-3-oxy)-1,2,5-thiadiazole] | 11 nM | 23 nM |
| – | c1csc(-c2ccc(Sc3nsnc3OC3CN4CCC3CC4)s2)c1 (racemic) [Compound 57, (±)-3-(2-(5-(2-Thienyl)thienyl)thio)-4-(1-azabicyclo [2.2.2]octyl-3-oxy)-1,2,5-thiadiazole] | 88 nM | 37 nM |
| – | c1csc(Sc2nsnc2OC2CN3CCC2CC3)c1 (racemic) [Compound 60, (±)-3-(2-Thienyl)thio)-4-(1-azabicyclo[2.2.2]octyl-3-oxy)-1,2,5-thiadiazole] | 19 nM | 14 nM |
| – | O=C1SCCN1CCCSc1nsnc1OC1CN2CCC1CC2 (racemic) [Compound 61, (±)-3-(3-N-(2-Thiazolidonyl)propylthio)-4-(1-azabicyclo[2.2.2]octyl-3-oxy)1,2,5-thiadiazole] | 1.1 nM | 5.8 nM |
| 0.72 nM | CCCCSc1nsnc1OC1CC2CCC1NC2 (racemic) [Compound 65, (±)3-Butylthio-4-(exo-2-azabicyclo[2.2.2]oct-6-yloxy)-1,2,5-thiadiazole] | 2.3 nM | – |
| – | FC(F)(F)C(F)(F)C(F)(F)COc1nsnc1OC1CN2CCC1CC2 (racemic) [Compound 69, (±)3-(2,2,3,3,4,4,4-heptafluorobutyloxy)-4-[-3-(1-azabicyclo[2.2.2]octyloxy)]-1,2,5-thiadiazole] | 29 nM | 20 nM |
| – | Fc1ccc(CCCSc2nsnc2OC2CN3CCC2CC3)cc1 (racemic) [Compound 73, (±)3-[3-(4-Fluorophenyl)propylthio]-4-[-3-(1-azabicyclo[2.2.2]octyloxy)]-1,2,5-thiadiazole] | 4.1 nM | 6.5 nM |
| – | FC(F)(F)c1ccc(CCCSc2nsnc2OC2CN3CCC2CC3)cc1 (racemic) [Compound 74, (±)3-{3-[4-(Trifluoromethyl)phenyl]propylthio}-4-[-3-(1-azabicyclo[2.2.2]octyloxy)]-1,2,5-thiadiazole] | 24 nM | 40 nM |

| Structure (SMILES) | IC50 [2, 3] | IC50 [1] | IC50 [2] |
| --- | --- | --- | --- |
| c1csc(-c2ccc(SCCSc3nsnc3OC3CN4CCC3CC4)s2)c1 (racemic) [Compound 59, (±)-3-(2-(2-(5-(2-Thienyl)thienyl)thio)ethylthio)-4-(1-azabicyclo[2.2.2]octyl-3-oxy)-1,2,5-thiadiazole] | 102 nM | 104 nM | – |
